The record followed here is ChEMBL document CHEMBL1201862, “PubChem BioAssay data set” (2004).

Holding throughout (assay): inhibition of tumour cell growth, NCI panel, 48 h
For test [1], the system named is SF-539.
The subject of test [2] is KM12.
The test system of test [3] is HL-60.
Test [4] deals with OVCAR-8.
The test system of test [5] is 786-0.
Test [6] relates to SF-268.
The test system of test [7] is HT-29.
For test [8], the system named is SF-295.
The test system of test [9] is EKVX.
The test system of test [10] is K562.
Test [11] has as its system NCI-H522.
Test [12] has as its system SR.
Test [13] concerns A549.
In test [14] the test system is COLO 205.
The test system of test [15] is SK-MEL-2.
Test [16] relates to MDA-MB-231.
The test system of test [17] is MDA-MB-435.
Test [18] concerns MDA-N.
Test [19] concerns NCI/ADR-RES.
The test system of test [20] is T47D.

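Values below derive from 48-hour exposures of cells grown in 96-well plates, with endpoints linearly interpolated between the two concentrations bracketing the appropriate inhibition level. The concentration for 50% growth inhibition is given as GI50.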 Active and inactive are the calls of the source. No stated cut-off is given here; in the data, active = GI50 up to about 1.1 µM and inactive = higher.

Consider `Cc1ccc(NC(=O)SCCC(=O)O)cc1NC(=O)SCCC(=O)O`, for which the GI50 in test [1], in [2], in test [3], in [4], in test [5] and in [6] was > 100 µM (inactive) each time. In addition, the GI50 in test [7], in test [8], in [9], in test [10], in test [11] and in [12] was > 100 µM (inactive) in each case. Moreover, the figures for the GI50 in test [13], in [14] and in [15] were > 100 µM (inactive), > 10 µM (inactive) and > 100 µM (inactive), respectively.
Consider `Cn1c(=O)c2nc(-c3ccc(Cl)cc3)oc2n(C)c1=O`, for which the GI50 in test [1], in test [2], in test [3], in test [4], in [5] and in test [6] was > 100 µM (inactive) in each case. Besides, the GI50 in [7], in [8], in test [9], in [10], in [11] and in test [12] was > 100 µM (inactive) in each case. Further, the GI50 in test [13] and in test [15] was > 100 µM (inactive) each time.
With `COc1ccc(O)c(/C=N/CCC/N=C/c2cc(OC)ccc2O)c1`, the GI50 is 31.3 µM (inactive) in [16]; 13.8 µM (inactive) in [2]; 1.21 µM (inactive) in test [3]; 15.7 µM (inactive) in [4]; 33.7 µM (inactive) in [5]; 22.6 µM (inactive) in [17]. Further, the GI50 was 37.5 µM (inactive) in test [7]; 18.1 µM (inactive) in test [8]; 20.2 µM (inactive) in [9]; 10.9 µM (inactive) in test [10]; 46 µM (inactive) in test [11]; 14 µM (inactive) in test [12]. For the same compound, the GI50 in [13] was 70.8 µM (inactive); in [15] it was 31.6 µM (inactive); in test [18] it was 31.3 µM (inactive).
For the compound `CC(C)c1cccc(C(C)C)c1NC(=O)C(=O)C1SC(=S)NC1=O` (configuration not stated), the GI50 in test [1], in [2], in [3], in test [4], in [5] and in [6] was > 100 µM (inactive) in each case. The GI50 in test [7], in test [8], in test [9], in test [10], in test [11] and in [12] was > 100 µM (inactive) throughout. In addition, the GI50 in test [13], in test [14] and in [15] was > 100 µM (inactive) throughout.
As for `O=c1cccccc1NCCCCCCCNc1cccccc1=O`, the GI50 in test [1] was 91.4 µM (inactive); in test [2] it was 56.4 µM (inactive); in [3] it was 11.1 µM (inactive); in test [4], 31.6 µM (inactive); in [5] it was > 100 µM (inactive); in test [6], 43.5 µM (inactive). For the same compound, the GI50 in [7] is 55.5 µM (inactive); in [8], 34 µM (inactive); in [9], 20.4 µM (inactive); in test [10], 17.8 µM (inactive); in [11] it was 13.8 µM (inactive); in test [12], 22.1 µM (inactive). In addition, the GI50 in test [13] was 21.8 µM (inactive); in test [14], 40.1 µM (inactive); in [15], 49 µM (inactive).
`Cc1cc(Cl)ccc1NC(=O)/C(CC(=O)CC(c1ccccc1)c1c(O)c2ccccc2oc1=O)=N\O` (configuration not stated): the GI50 in test [16], in test [1], in test [2], in [3], in test [4] and in test [5] was > 100 µM (inactive) each time. Moreover, the GI50 in test [6], in test [17], in [7], in test [8], in [9] and in test [11] was > 100 µM (inactive) in each case. The GI50 in test [13], in [14], in test [15], in test [18] and in test [19] was > 100 µM (inactive) in each case.
On to `O=c1oc2c3ccc4ccccc4c3n(CCN3CCCCC3)c2c2ccccc12`, for which the GI50 in test [1] is 17.1 µM (inactive); in test [2], 79.1 µM (inactive); in test [3] it was 89.5 µM (inactive); in test [4] it was 19 µM (inactive); in test [5] it was 10.3 µM (inactive); in test [6], 31.4 µM (inactive). In addition, the GI50 is 10.1 µM (inactive) in [7]; 16.8 µM (inactive) in test [8]; > 87.5 µM (inactive) in [9]; 15.1 µM (inactive) in test [10]; 17.9 µM (inactive) in test [11]; 3.21 µM (inactive) in test [12]. Moreover, the GI50 is 15.6 µM (inactive) in test [13], 14.8 µM (inactive) in test [14] and 26.5 µM (inactive) in [15].
`COC(=O)c1ccc(C)cc1/C=C1\Cc2ccc(C)cc2C1=O`: the GI50 is 12.4 µM (inactive) in test [1]; 11.6 µM (inactive) in [2]; 4.78 µM (inactive) in test [3]; 21.2 µM (inactive) in test [4]; 16.9 µM (inactive) in test [5]; 14.2 µM (inactive) in [6]. In addition, the GI50 in [17] was 4.28 µM (inactive); in [7], 4.73 µM (inactive); in test [8], 15.3 µM (inactive); in test [9] it was 26.2 µM (inactive); in test [10] it was 6.58 µM (inactive); in [11], 17.1 µM (inactive). For the same compound, the GI50 is 3.9 µM (inactive) in test [12]; 26.9 µM (inactive) in test [13]; 8.63 µM (inactive) in test [14]; 17.1 µM (inactive) in test [20]; 29.4 µM (inactive) in test [19].
In the case of `CN(C)CC1CCCC/C1=N/OC(=O)c1ccc(Cl)cc1` (configuration not stated), the GI50 in test [1], in test [2], in [3], in test [4], in test [5] and in [6] was > 100 µM (inactive) throughout. Moreover, the GI50 in test [7], in test [8], in test [9], in test [10], in test [11] and in [12] was > 100 µM (inactive) throughout. For the same compound, the GI50 in [13], in test [14] and in test [15] was > 100 µM (inactive) throughout.
Regarding `N#CC(C(=O)C(=O)Nc1ccc(Cl)c(Cl)c1)c1ccc(Cl)cc1` (configuration not stated), the GI50 in [1] was > 100 µM (inactive); in [2] it was > 100 µM (inactive); in test [3], 47.2 µM (inactive); in test [4], > 100 µM (inactive); in [5], 41 µM (inactive); in [6] it was > 100 µM (inactive). Further, the GI50 is 69.2 µM (inactive) in [7]; 87.9 µM (inactive) in test [8]; > 100 µM (inactive) in [9]; 23.4 µM (inactive) in test [10]; 25.2 µM (inactive) in test [11]; 51.9 µM (inactive) in [12]. Besides, the GI50 in test [13] is 97.3 µM (inactive); in test [14], 45.1 µM (inactive); in [15], 34.2 µM (inactive).
As to `CCOc1ccc(NC(=O)/C=C/c2ccco2)cc1`, the GI50 was > 100 µM (inactive) in [16]; 26 µM (inactive) in test [1]; 30.5 µM (inactive) in test [2]; 11.9 µM (inactive) in test [3]; 85.9 µM (inactive) in [4]; > 100 µM (inactive) in test [5]. Moreover, the GI50 was 78.7 µM (inactive) in test [6]; 5.98 µM (inactive) in test [17]; 26.4 µM (inactive) in test [7]; 61.8 µM (inactive) in [8]; 87.3 µM (inactive) in test [9]; 24.2 µM (inactive) in [10]. Also, the GI50 in test [11] is > 100 µM (inactive); in test [12], 28.8 µM (inactive); in [13], > 100 µM (inactive); in test [14] it was 36.1 µM (inactive); in [15], > 100 µM (inactive); in test [18], 12.3 µM (inactive). For the same compound, in [19], the GI50 is 30.8 µM (inactive).
Consider `C#CC[C@]12CC(=O)CC[C@H]1CC(=O)C2`, for which the GI50 in test [1], in [2], in test [3], in test [4], in test [5] and in [6] was > 100 µM (inactive) in each case. The GI50 in test [10], in test [11], in [12], in test [13], in test [14] and in test [15] was > 100 µM (inactive) in each case.
As for `C/C1=C/C(=O)O[C@@H]2C[C@@H](CC[C@H](C)/C=C\C=C\CC1)O[C@@](O)([C@@H]1CSC(=O)N1)C2` [LATRUNCULIN A], the GI50 in test [16] was 0.0834 µM (active); in [1], 0.171 µM (active); in test [2], > 10 µM (inactive); in test [3], 3.28 µM (inactive); in test [4], 1.41 µM (inactive); in [5] it was 0.226 µM (active). For the same compound, the GI50 in test [6] is 0.305 µM (active); in [17], 0.44 µM (active); in test [7], 0.417 µM (active); in test [8], 0.262 µM (active); in test [9], 0.74 µM (active); in test [10], 3.34 µM (inactive). Moreover, the GI50 is 0.653 µM (active) in test [12]; 0.564 µM (active) in test [13]; 0.18 µM (active) in test [14]; 5.25 µM (inactive) in [15]; > 5.07 µM (inactive) in [18]; 3.01 µM (inactive) in test [19].
